Results published in publication PMC6155732, “Development of a UPLC-TQ/MS Approach for the Determination of Eleven Bioactive Components in Haizao Yuhu Decoction Plus-Minus Haizao and Gancao Drug Combination after Oral Administration in a Rat Model of Hypothyroidism” (Molecules : A Journal of Synthetic Chemistry and Natural …, 2016).

Experiments:
[1] = Pharmacokinetics of compounds 1–11 in rat plasma (UPLC-TQ/MS) after oral administration of HYD and plus-minus Haizao/Gancao decoctions; assay type: in vivo, Wistar rats (PTU-induced model of hypothyroidism); details: Wistar, model rats, n = 6, mean ± S.D.
Protocol: Plasma samples (200 μL) and IS solution (50 μL, 1215 ng/mL for diphenhydramine, 476 ng/mL for chloromycetin) were added to an Eppendorf tube, and this mixture was extracted with methanol (550 μL) by shaking on a vortex-mixer for 2 min, and centrifuged for 10 min at 13,000 rpm. The contents were evaporated to dryness in a rotary evaporator at 37 °C. The residue was reconstituted in methanol (100 μL) and centrifuged (13,000 rpm for 10 min). The supernatant was transferred to an autosample vial and an aliquot of 5 μL was injected onto the UPLC-MS/MS system for analysis.
The developed and validated method was used to evaluate the pharmacokinetics of the eleven compounds after oral administration of different fractions in […] (Figure 3). […] The pharmacokinetic parameters including half-life (T1/2), maximum plasma concentration (Cmax), time to reach the maximum concentration (Tmax), and area under concentration–time curve (AUC0~t) were calculated by a non-compartment model and are shown in Table 6.
A considerable increase in thyroid stimulating hormone (TSH) and decrease in triiodothyronine (T3) and tetraiodothyronine (T4) in serum are considered to be markers of successful hypothyroid rat model preparation. PTU is the classic drug used to replicate hypothyroidism in rat models. It is generally thought that PTU can decrease the level of thyroid hormone in a hypothyroid rat model by inhibiting the activity of TPO [31, 32]. Model Wistar rats were administered PTU intragastrically at a dose of 10 mg/kg (QD) for 2 weeks to establish hypothyroidism. Serum from model rats was collected on the last day of PTU administration and the T3, T4 and TSH levels were determined using test kits. Wistar rats with a considerable increase in […] and a decrease in serum T3 and T4 were considered to have hypothyroidism and were selected for subsequent pharmacokinetic studies.
For the pharmacokinetic studies, model Wistar rats were divided into six groups (n = 6 per group). Rats in the model HYD groups were administered HYD at a dose of 12 mL/kg intragastrically. In the model HYD-GC groups, HYD-GC (11 mL/kg) was administered. In the model HYD-HZ groups, HYD-HZ (11 mL/kg) was administered. In the model HYD-GC-HZ groups, HYD-GC-HZ (10 mL/kg) was administered. In the model GH groups, GH (2 mL/kg) was administered. In the model GC groups, GC (1 mL/kg) was administered. Blood samples were collected at specific time points before (0 min) and after oral administration (5, 10, 20, 40, 60, 120, 240, 480, 720, 1440 min). A total of 360 blood samples were collected. All blood samples were immediately centrifuged at 2500 rpm for 10 min to obtain plasma, which was labeled and frozen at −80 °C until analysis. Blank plasma was obtained from the rats without oral administration and was used to investigate the assay development and validation.
To determine the pharmacokinetic parameters of compounds 1–11 in different groups, concentration–time data were analyzed by DAS 3.2 software (Mathematical Pharmacology Professional Committee of China, Shanghai, China, 2011). Data were expressed as the mean and standard deviation (S.D.) with triplicate measurements. The identification of significant differences between different groups was carried out using the Student’s t-test. A p value < 0.05 was considered statistically significant.

CYP2C19 = tested on: CYP2C19; set-up: method as in PMID 21462897; details: cited from earlier work
CYP3A4 = tested on: CYP3A4; set-up: method as in PMID 21462897; details: cited from earlier work
CYP2C9 = tested on: CYP2C9; set-up: method as in PMID 21462897; details: cited from earlier work
[2] = 10 mL/kg, group HYD-GH (HYD minus Gancao and Haizao; HYD-GC-HZ), 10 mL/kg intragastrically
[3] = 11 mL/kg, group HYD-GC (HYD minus Gancao), 11 mL/kg intragastrically
[4] = 11 mL/kg, group HYD-HZ (HYD minus Haizao), 11 mL/kg intragastrically
[5] = 12 mL/kg, group HYD, 12 mL/kg intragastrically
[6] = 1 mL/kg, group GC (extract of Gancao), 1 mL/kg intragastrically
[7] = 2 mL/kg, group GH (extract of Gancao and Haizao), 2 mL/kg intragastrically

SMILES	AUC(0-t) [1, 2]	Cmax [1, 2]	Tmax [1, 2]	half-life [1, 2]	AUC(0-t) [1, 3]	Cmax [1, 3]	Tmax [1, 3]	half-life [1, 3]	AUC(0-t) [1, 4]	Cmax [1, 4]	Tmax [1, 4]	half-life [1, 4]	AUC(0-t) [1, 5]	Cmax [1, 5]	Tmax [1, 5]	half-life [1, 5]	AUC(0-t) [1, 6]	Cmax [1, 6]	Tmax [1, 6]	half-life [1, 6]	also measured
COc1ccc(-c2cc(=O)c3c(OC)c(OC)c(OC)c(OC)c3o2)cc1OC [Compound 9, nobiletin]	1180 ± 539 ng·h/mL	311 ± 126 ng/mL	0.46 ± 0.37 h	3.26 ± 3.53 h	2010 ± 1020 ng·h/mL	501 ± 183 ng/mL	0.89 ± 0.27 h	4.53 ± 1.89 h	2290 ± 55.5 ng·h/mL	322 ± 88.2 ng/mL	0.19 ± 0.07 h	16.2 ± 7.06 h	2870 ± 285 ng·h/mL	1000 ± 178 ng/mL	0.67 h	6.03 ± 1.95 h					
CC1(C)[C@@H](O)CC[C@]2(C)[C@H]3C(=O)C=C4[C@@H]5C[C@@](C)(C(=O)O)CC[C@]5(C)CC[C@@]4(C)[C@]3(C)CC[C@@H]12 [Compound 11, glycyrrhetinic acid]									12700 ng·h/mL	756 ± 58.1 ng/mL	12 h	1.99 ± 0.03 h	9990 ± 1660 ng·h/mL	504 ± 101 ng/mL	9.33 ± 2.07 h	3.01 ± 2.35 h	10500 ng·h/mL	776 ± 184 ng/mL	10 ± 2.31 h	4.66 ± 5.33 h	inhibitory potencies on CYP2C19 enzyme activity (CYP2C19): up to 50%; inhibitory potencies on CYP3A4 enzyme activity (CYP3A4): up to 50%; AUC(0-t) [1, 7]: 22800 ng·h/mL; Cmax [1, 7]: 1250 ± 210 ng/mL; Tmax [1, 7]: 12.7 ± 5.89 h; half-life [1, 7]: 1.93 ± 0.04 h; inhibitory potencies on CYP2C9 enzyme activity (CYP2C9): up to 50%
C[C@@H]1O[C@@H](O[C@H]2[C@H](Oc3cc(O)c4c(c3)O[C@H](c3ccc(O)cc3)CC4=O)O[C@H](CO)[C@@H](O)[C@@H]2O)[C@H](O)[C@H](O)[C@H]1O [Compound 2, naringin]	565 ± 352 ng·h/mL	424 ± 188 ng/mL	0.15 ± 0.1 h	1.23 ± 0.15 h	561 ± 278 ng·h/mL	271 ± 75.4 ng/mL	0.19 ± 0.07 h	1.12 ± 0.28 h	1060 ± 244 ng·h/mL	463 ± 194 ng/mL	0.5 ± 0.18 h	2.59 ± 2.02 h	912 ± 198 ng·h/mL	612 ± 200 ng/mL	0.17 ± 0.09 h	11.3 ± 4.86 h					
CC1(C)[C@@H](O[C@H]2O[C@H](C(=O)O)[C@@H](O)[C@H](O)[C@H]2O[C@@H]2O[C@H](C(=O)O)[C@@H](O)[C@H](O)[C@H]2O)CC[C@]2(C)[C@H]3C(=O)C=C4[C@@H]5C[C@@](C)(C(=O)O)CC[C@]5(C)CC[C@@]4(C)[C@]3(C)CC[C@@H]12 [Compound 7, glycyrrhizic acid]									587 ± 261 ng·h/mL	587 ± 261 ng/mL	0.67 ± 0.42 h	1.84 ± 1.82 h	1690 ± 639 ng·h/mL	1370 ± 712 ng/mL	0.292 ± 0.1 h	1.58 ± 1.01 h	1760 ± 1430 ng·h/mL	607 ± 137 ng/mL	1.25 ± 0.5 h	4.47 ± 2.63 h	AUC(0-t) [1, 7]: 3600 ± 1840 ng·h/mL; Cmax [1, 7]: 1350 ± 322 ng/mL; Tmax [1, 7]: 0.56 ± 0.4 h; half-life [1, 7]: 9.94 ± 8.89 h
O=C1C[C@@H](c2ccc(O[C@@H]3O[C@H](CO)[C@@H](O)[C@H](O)[C@H]3O)cc2)Oc2cc(O)ccc21 [Compound 1, liquiritin]									987 ± 567 ng·h/mL	494 ± 165 ng/mL	0.31 ± 0.07 h	3.66 ± 3.3 h	1760 ± 287 ng·h/mL	1600 ± 595 ng/mL	0.19 ± 0.11 h	9.23 ± 5.85 h	229 ± 119 ng·h/mL	147 ± 37.7 ng/mL	0.67 h	0.99 ± 0.34 h	AUC(0-t) [1, 7]: 2510 ± 814 ng·h/mL; Cmax [1, 7]: 254 ± 122 ng/mL; Tmax [1, 7]: 0.17 h; half-life [1, 7]: 1.34 ± 1.48 h
COc1c2ccoc2cc2oc(=O)ccc12 [Compound 8, bergapten]	786 ± 369 ng·h/mL	125 ± 35.6 ng/mL	0.11 ± 0.04 h	9.6 ± 10.6 h	470 ± 130 ng·h/mL	183 ± 47 ng/mL	0.61 ± 0.14 h	1.17 ± 0.1 h	649 ± 132 ng·h/mL	192 ± 54.5 ng/mL	0.81 ± 0.34 h	1.92 ± 1.75 h	819 ± 25.7 ng·h/mL	227 ± 57.8 ng/mL	0.33 ± 0.21 h	1.56 ± 1.02 h					
O=C1C[C@@H](c2ccc(O)cc2)Oc2cc(O)ccc21 [Compound 6, liquiritigenin]									2150 ± 629 ng·h/mL	276 ± 66.5 ng/mL	0.79 ± 1.58 h	3.94 ± 0.59 h		358 ± 91.9 ng/mL	2.75 ± 4.07 h	4.05 ± 0.77 h	1000 ± 946 ng·h/mL	220 ± 47.4 ng/mL	2.5 ± 1.73 h	2.41 ± 1.57 h	AUC(0-t) [1, 7]: 681 ± 771 ng·h/mL; Cmax [1, 7]: 211 ± 70.3 ng/mL; Tmax [1, 7]: 1.5 ± 1.23 h; half-life [1, 7]: 4.12 ± 3.73 h
COc1ccc2ccc(=O)oc2c1CC=C(C)C [Compound 10, osthole]	98.5 ± 41 ng·h/mL	69.2 ± 25.6 ng/mL	0.53 ± 0.31 h	0.68 ± 0.49 h	205 ± 94.7 ng·h/mL	101 ± 31.9 ng/mL	0.39 ± 0.14 h	1.54 ± 0.51 h	295 ± 117 ng·h/mL	295 ± 117 ng/mL	0.61 ± 0.25 h	1.45 ± 1.11 h	748 ± 225 ng·h/mL	458 ± 184 ng/mL	0.61 ± 0.14 h	1.25 ± 0.03 h					
